Data on 20 compounds can be found in patent publication US7368471B2, “Substituted indole acid derivatives as inhibitors of plasminogen activator inhibitor-1 (PAI-1)” (Wyeth, priority 2001, dated 2008).

Series [1] deals with T1, recombinant human plasminogen activator inhibitor-1 (PAI-1) (Homo sapiens, UniProt P05121).
T1 construct: purchased Molecular Innovations, Royal Oak, Mich
Description: Modification of the Primary Screen for the PAI-1 Inhibition (IC50). The class given is biochemical. The settings on record: footnote b: determined by a modification of the Primary Screen for the PAI-1 Inhibition. The protocol: (§1) Primary Screen for the PAI-1 Inhibition
(§2) Test compounds are dissolved in DMSO at a final concentration of 10 mM, then diluted 100× in physiologic buffer. The inhibitory assay is initiated by the addition of the test compound (1-100 μM final concentration, maximum DMSO concentration of 0.2%) in a pH 6.6 buffer containing 140 nM recombinant human plasminogen activator inhibitor-1 (PAI-1; Molecular Innovations, Royal Oak, Mich.). Following a 1 hour incubation at room temperature, 70 nM of recombinant human tissue plasminogen activator (tPA) is added, and the combination of the test compound, PAI-1 and tPA is incubated for an additional 30 minutes. Following the second incubation, Spectrozyme-tPA (American Diagnostica, Greenwich, Conn.), a chromogenic substrate for tPA, is added and absorbance read at 405 nm at 0 and 60 minutes. Relative PAI-1 inhibition is equal to the residual tPA activity in the presence of the test compound and PAI-1. Control treatments include the complete inhibition of tPA by PAI-1 at the molar ratio employed (2:1), and the absence of any effect of the test compound on tPA alone.

Series [2] has as its target human PAI-1 (Homo sapiens, UniProt P05121). Description: Antibody Assay for Determining IC50 of Inhibition of PAI-1 (active PAI-1 bound to tPA-coated plate, 33B8 antibody). The class given is binding. On the procedure: Assay for Determining IC50 of Inhibition of PAI-1
This assay is based upon the non-SDS dissociable interaction between tPA and active PAI-1. Assay plates are initially coated with human tPA (10 μg/ml). Test compounds are dissolved in DMSO at 10 mM, then diluted with physiologic buffer (pH 7.5) to a final concentration of 1-50 μM. Test compounds are incubated with human PAI-1 (50 ng/ml) for 15 minutes at room temperature. The tPA-coated plate is washed with a solution of 0.05% Tween 20 and 0.1% BSA, then the plate is blocked with a solution of 3% BSA. […] The plate is again washed, and a solution of goat anti-mouse IgG-alkaline phosphatase conjugate is added at a 1:50,000 dilution in goat serum. The plate is incubated 30 minutes at room temperature, washed, and a solution of alkaline phosphatase substrate is added. The plate is incubated 45 minutes at room temperature, and color development is determined at OD405nm. […] Results are analyzed using a logarithmic best-fit equation. The assay sensitivity is 5 ng/ml of human PAI-1 as determined from a standard curve ranging from 0-100 ng/ml.

In series [3] the target is T1, recombinant human plasminogen activator inhibitor-1 (PAI-1). Nature of the series: Primary Screen for the PAI-1 Inhibition (residual tPA activity, Spectrozyme-tPA chromogenic substrate). The class given is biochemical. The settings on record: 25 μM test compound. The protocol:
as §1, §2

[4] abbreviates: footnote a: determined by the Antibody Assay, read-out: IC50.

Read-outs that look alike come from different tables or passages of the source.

Chain of human PAI-1 (P05121 24-402): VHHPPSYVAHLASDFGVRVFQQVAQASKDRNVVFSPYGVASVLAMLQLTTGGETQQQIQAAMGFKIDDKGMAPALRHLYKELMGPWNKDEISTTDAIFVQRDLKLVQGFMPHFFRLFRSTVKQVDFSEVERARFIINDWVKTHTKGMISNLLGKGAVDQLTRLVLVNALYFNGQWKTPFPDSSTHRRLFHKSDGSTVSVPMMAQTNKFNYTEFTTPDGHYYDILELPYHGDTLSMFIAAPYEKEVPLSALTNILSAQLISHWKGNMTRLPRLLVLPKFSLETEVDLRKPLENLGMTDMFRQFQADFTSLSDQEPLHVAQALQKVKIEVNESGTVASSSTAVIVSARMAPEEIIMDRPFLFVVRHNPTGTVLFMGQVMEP
T1 sequence (P05121 24-402): as above

As to `Cn1cc(C(=O)C(=O)O)c2ccc(-c3ccc(C(F)(F)F)cc3)cc21` [Example 2, {1-Methyl-6-[4-(trifluoromethyl)phenyl]-1H-indol-3-yl}(oxo)acetic acid], the melting point was 256 to 257 °C (dec.). In series [1], the IC50 is 32 µM.
Regarding `CC(C)(C)c1ccc(Cn2cc(C(=O)C(=O)O)c3ccc(-c4ccc(OC(F)(F)F)cc4)cc32)cc1` [Example 8, {1-[4-(tert-Butyl)benzyl]-6-[4-(trifluoromethoxy)phenyl]-1H-indol-3-yl}(oxo)acetic acid], in series [1], the concentration for half-maximal inhibition (IC50) turned out to be 11.2 µM.
Take `O=C(O)C(=O)c1cn(Cc2ccccc2)c2ccc(-c3ccc(F)c(Cl)c3)cc12` [Example 15, [1-Benzyl-5-(3-chloro-4-fluorophenyl)-1H-indol-3-yl](oxo)acetic acid]: the melting point is 145 to 146 °C (dec.). Moreover, the IC50 in series [1] worked out at 6.5 µM.
For `O=C(O)C(=O)c1cn(Cc2ccccc2)c2c(-c3ccc(F)c(Cl)c3)cccc12` [Example 18, [1-Benzyl-7-(3-chloro-4-fluorophenyl)-1H-indol-3-yl](oxo)acetic acid] the same measures were 153 to 156 °C and 19.4 µM.
`CC(C)(C)c1ccc(Cn2cc(C(=O)C(=O)O)c3cc(-c4ccc(OC(F)(F)F)cc4)ccc32)cc1` [Example 19, {1-(4-tert-Butylbenzyl)-5-[4-(trifluoromethoxy)phenyl]-1H-indol-3-yl}(oxo)acetic acid]: in series [1], the IC50 worked out at 15.8 µM.
`Cc1ccc(Cn2cc(C(=O)C(=O)O)c3cc(-c4ccccc4)ccc32)cc1` [Example 25, [1-(4-Methylbenzyl)-5-phenyl-1H-indol-3-yl](oxo)acetic acid]: the melting point is 195 to 196 °C. The half-inhibitory concentration (IC50) in series [1] is 14 µM.
For `Cc1ccc(Cn2cc(C(=O)C(=O)O)c3cc(-c4ccc(OC(F)(F)F)cc4)ccc32)cc1` [Example 26, {1-(4-Methylbenzyl)-5-[4-(trifluoromethoxy)phenyl]-1H-indol-3-yl}(oxo)acetic acid] the same measures were 192 to 193 °C and 6.8 µM.
For `O=C(O)C(=O)c1cn(Cc2ccc(F)cc2)c2ccc(-c3ccc(OC(F)(F)F)cc3)cc12` [Example 27, {1-(4-Fluorobenzyl)-5-[4-(trifluoromethoxy)phenyl]-1H-indol-3-yl}(oxo)acetic acid] the same measures were 158 to 159 °C and 5.3 µM.
For `CCCCn1cc(C(=O)C(=O)O)c2cc(-c3cccc(Cl)c3)ccc21` [Example 30, [1-Butyl-5-(3-chlorophenyl)-1H-indol-3-yl](oxo)acetic acid] the same measures were 108 to 109 °C and 16 µM.
In turn, `CCCCn1cc(C(=O)C(=O)O)c2cc(-c3ccc(C(F)(F)F)cc3)ccc21` [Example 33, {1-Butyl-5-[4-(trifluoromethyl)phenyl]-1H-indol-3-yl}(oxo)acetic acid] yielded a melting point of 149 °C. Also, in series [2] (setting [4]), the IC50 was 10.5 µM.
Regarding `Cc1cccc(-c2ccc3c(c2)c(C(=O)C(=O)O)cn3Cc2ccc(C(C)(C)C)cc2)c1` [Example 34, [1-(4-tert-Butylbenzyl)-5-(3-methylphenyl)-1H-indol-3-yl](oxo)acetic acid], the IC50 in series [1] worked out at 6.2 µM.
In the case of `COc1cccc(-c2ccc3c(c2)c(C(=O)C(=O)O)cn3Cc2ccc(C(C)(C)C)cc2)c1` [Example 35, [1-(4-tert-Butylbenzyl)-5-(3-methoxyphenyl)-1H-indol-3-yl](oxo)acetic acid], the IC50 in series [1] worked out at 14.6 µM.
`CC(C)(C)c1ccc(Cn2cc(C(=O)C(=O)O)c3cc(-c4ccc(C(C)(C)C)cc4)ccc32)cc1` [Example 36, [1-(4-tert-Butylbenzyl)-5-(4-tert-butylphenyl)-1H-indol-3-yl](oxo)acetic acid] had a melting point of 111 to 112 °C. In series [2] (setting [4]), the IC50 turned out to be 10 µM.
For `CC(C)(C)c1ccc(Cn2cc(C(=O)C(=O)O)c3cc(-c4cccc(Cl)c4)ccc32)cc1` [Example 37, [1-(4-tert-Butylbenzyl)-5-(3-chlorophenyl)-1H-indol-3-yl](oxo)acetic acid] the same measures were 138 to 139 °C and 16.4 µM.
On the same counts, the results for `Cc1ccccc1-c1ccc2c(c1)c(C(=O)C(=O)O)cn2Cc1ccc(C(C)(C)C)cc1` [Example 39, [1-(4-tert-Butylbenzyl)-5-(2-methylphenyl)-1H-indol-3-yl](oxo)acetic acid] are 97 to 98 °C and 21.6 µM.
`CCC(CC)Cn1cc(C(=O)C(=O)O)c2cc(-c3ccc(OC(F)(F)F)cc3)ccc21` [Example 40, {1-(2-Ethylbutyl)-5-[4-(trifluoromethoxy)phenyl]-1H-indol-3-yl}(oxo)acetic acid] had a melting point of 98 to 99 °C. In series [1], the concentration for half-maximal inhibition (IC50) is 8.5 µM.
Regarding `Cc1ccc(Cn2c(CO)c(C(=O)C(=O)[O-])c3cc(-c4ccc(OC(F)(F)F)cc4)ccc32)cc1.[K+]` [Example 42, {2-(Hydroxymethyl)-1-(4-methylbenzyl)-5-[4-(trifluoromethoxy)phenyl]-1H-indol-3-yl}(oxo)acetic acid, potassium salt], the melting point lay within 248 to 249.5 °C. Also, the IC50 in series [2] (setting [4]) came to 45.7 µM.
For `CC(=O)OCc1c(C(=O)C(=O)O)c2cc(-c3ccc(OC(F)(F)F)cc3)ccc2n1Cc1ccccc1` [Example 43, {2-[(Acetyloxy)methyl]-1-benzyl-5-[4-(trifluoromethoxy)phenyl]-1H-indol-3-yl}(oxo)acetic acid], the melting point lay within 85 to 86 °C. Also, the half-maximal inhibitory concentration (IC50) in series [2] (setting [4]) amounted to 17.2 µM.
For `O=C([O-])C(=O)c1c(CO)n(Cc2ccccc2)c2ccc(-c3ccc(OC(F)(F)F)cc3)cc12.[K+]` [Example 44, {1-Benzyl-2-(hydroxymethyl)-5-[4-(trifluoromethoxy)phenyl]-1H-indol-3-yl}(oxo)acetic acid, potassium salt] the same measures were 280 to 282 °C and 26.3 µM.
As to `O=C(O)c1cn(Cc2ccccc2)c2ccc(-c3ccc(F)c(Cl)c3)cc12` [Example 62, 1-Benzyl-5-(3-chloro-4-fluoro-phenyl)-1H-indole-3-carboxylic acid], the melting point fell in the range of 189 to 194 °C. In addition, the inhibition at 25 µM in series [3] came to 53%. In addition, in series [2], half-maximal inhibition (IC50) required 11.2 µM.

For orientation: melting point means the temperature, or range, at which the solid turns liquid. Usually IC50 stands for the concentration at which inhibition is half-maximal. By inhibition is commonly meant the change of the read-out against control, counted positive when it falls.
